From US20230413824A1, “AGROCHEMICAL COMPOSITION COMPRISING 3-SUBSTITUTED PHENYLAMIDINE COMPOUNDS AND USE THEREOF” (PI INDUSTRIES LIMITED, priority 2020, published 2023)
Values joined by “and” are separate entries in the source; they are usually repeats but may differ in a detail not shown here. Identical values can stand only once. Like-named read-outs stand apart in the source and are kept apart here.

Assays:
Format in all cases: in vivo
Septoria nodorum = assay: Parastagonospora nodorum/Septoria nodorum/Stagnospora nodorum test in wheat (preventive, glasshouse); details: single compound
Procedure: The single compounds or compound combinations were dissolved in 2% DMSO/Acetone and then mixed with water containing emulsifier to a calibrated spray volume of 50 mL. The spray solutions were poured into spray bottles for further applications.
To test the preventive activity of compounds, healthy young wheat plants, raised in the greenhouse, were sprayed with the single compound or mixture preparation at the stated application rates inside the spray cabinets using hollow cone nozzles. One day after treatment, the plants were inoculated with a suspension containing 2.8×10^6 Stagnospora nodorum inoculum. The inoculated plants were then kept in a greenhouse chamber at 22-25° C. temperature and 90-100% relative humidity for disease expression.
A visual assessment of the performance of the compounds and respective compound combinations was carried out by rating the disease severity (0-100% scale) on treated plants 3, 7 and 10 days after application. Efficacy (% control) of the compounds was calculated by comparing the disease rating in the treatment with the one of the untreated control. The compounds were also assessed for their plant compatibility by recording symptoms like necrosis, chlorosis & stunting. The results are shown for the compound of formula (I-1) to (I-5) in Table E1-E5.

Alternaria solani = Alternaria solani test in tomato (preventive, glasshouse)
Erysiphe cichoracearum = Erysiphe cichoracearum test in cucumber (preventive, glasshouse); details: single compound
Botrytis cinerea = Botrytis cinerea test in tomato (preventive, glasshouse); details: single compound
Phakopsora pachyrhizi = Phakopsora pachyrhizi test in soybean (preventive, glasshouse); details: single compound
Pyricularia oryzae = assay: whole plant or invertebrate; details: for Observed Efficacy: single compound, preventive spray, rice
[1] = Parastagonospora nodorum, 0.1 ppm, read-out: Observed Efficacy (%)
[2] = Alternaria solani, single compound, 0.05 ppm, preventive spray, read-out: Observed Efficacy (%)
[3] = Alternaria solani, single compound, 0.1 ppm, preventive spray, read-out: Observed Efficacy (%)
[4] = Table B3, single compound, Conc. 0.05 ppm, preventive
[5] = Table B3, single compound, Conc. 0.1 ppm, preventive
[6] = Table B4, single compound, Conc. 0.05 ppm, preventive
[7] = Table B4, single compound, Conc. 0.1 ppm, preventive
[8] = single compound, 0.05 ppm, preventive
[9] = single compound, 0.1 ppm, preventive
[10] = Botrytis cinerea, Conc. 0.05 ppm, preventive spray on tomato, % control vs untreated, read-out: Observed Efficacy (%)
[11] = Botrytis cinerea, Conc. 0.1 ppm, preventive spray on tomato, % control vs untreated, read-out: Observed Efficacy (%)
[12] = Table F4, Conc. 0.05 ppm, Botrytis cinerea in tomato, preventive
[13] = Table F4, Conc. 0.1 ppm, Botrytis cinerea in tomato, preventive
[14] = Phakopsora pachyrhizi, 0.05 ppm, preventive spray on soybean, read-out: Observed Efficacy (%)
[15] = Phakopsora pachyrhizi, 0.1 ppm, preventive spray on soybean, read-out: Observed Efficacy (%)
[16] = Conc. 0.05 ppm, soybean, preventive, Table D4
[17] = Conc. 0.05 ppm, soybean, preventive, Table D5
[18] = Conc. 0.1 ppm, soybean, preventive, Table D4
[19] = Conc. 0.1 ppm, soybean, preventive, Table D5
[20] = single compound, 0.05 ppm, preventive spray
[21] = single compound, 0.1 ppm, preventive spray
[22] = 0.05 ppm, preventive spray on cucumber
[23] = 0.1 ppm, preventive spray on cucumber
[24] = Table F5, Conc. 0.05 ppm, Botrytis cinerea in tomato, preventive
[25] = Table F5, Conc. 0.1 ppm, Botrytis cinerea in tomato, preventive
[26] = Conc. 0.05 ppm, preventive spray on tomato, % control vs untreated
[27] = Conc. 0.1 ppm, preventive spray on tomato, % control vs untreated
[28] = 0.05 ppm, preventive spray on soybean
[29] = 0.1 ppm, preventive spray on soybean
[30] = single compound, Conc. 0.05 ppm, preventive spray
[31] = Pyricularia oryzae, read-out: Observed Efficacy

Row | Compound | pest or weed control at 0.1 ppm (Septoria nodorum; [1]) [%] | pest or weed control at 0.05 ppm (Alternaria solani; [2]) [%] | pest or weed control at 0.1 ppm (Alternaria solani; [3]) [%] | Observed Efficacy (%) (Alternaria solani; [4]) | Observed Efficacy (%) (Alternaria solani; [5]) | Observed Efficacy (%) (Alternaria solani; [6]) | Observed Efficacy (%) (Alternaria solani; [7]) | Observed Efficacy (%) (Alternaria solani; [8]) | Observed Efficacy (%) (Alternaria solani; [9]) | Observed Efficacy (%) (Botrytis cinerea; [12]) | Observed Efficacy (%) (Botrytis cinerea; [13]) | Observed Efficacy (%) (Phakopsora pachyrhizi; [16]) | Observed Efficacy (%) (Phakopsora pachyrhizi; [17]) | Observed Efficacy (%) (Phakopsora pachyrhizi; [18]) | Observed Efficacy (%) (Phakopsora pachyrhizi; [19]) | Observed Efficacy (%) (Septoria nodorum; 0.05 ppm) | Observed Efficacy (%) (Septoria nodorum; 0.1 ppm) | Observed Efficacy (%) (Alternaria solani; [20]) | Observed Efficacy (%) (Alternaria solani; [21]) | Observed Efficacy (%) (Botrytis cinerea; [27]) | also measured
1 | CCN(C)C=Nc1cc(C)cc(Cc2ccccc2C)c1C [Compound (I-3), N′-(2,5-dimethyl-3-(2-methylbenzyl)phenyl)-N-ethyl-N-methylformimidamide] | – | – | – | – | – | – | – | – | – | – | – | – | – | – | – | – | – | – | – | – | pest or weed control at 1 ppm (Septoria nodorum; Parastagonospora nodorum, 1 ppm, read-out: Observed Efficacy (%)): 13%; pest or weed control at 5 ppm (Septoria nodorum; Parastagonospora nodorum, 5 ppm, read-out: Observed Efficacy (%)): 27%; pest or weed control at 20 ppm (Septoria nodorum; Parastagonospora nodorum, 20 ppm, read-out: Observed Efficacy (%)): 40%; pest or weed control at 1 ppm (Alternaria solani; Alternaria solani, Table B3, single compound, Conc. 1 ppm, preventive, read-out: Observed Efficacy (%)): 17%; pest or weed control at 5 ppm (Alternaria solani; Alternaria solani, Table B3, single compound, Conc. 5 ppm, preventive, read-out: Observed Efficacy (%)): 23%; pest or weed control at 20 ppm (Alternaria solani; Alternaria solani, Table B3, single compound, Conc. 20 ppm, preventive, read-out: Observed Efficacy (%)): 43%; pest or weed control at 1 ppm (Erysiphe cichoracearum; Golovinomyces cichoracearum, 1 ppm, preventive spray on cucumber, read-out: Observed Efficacy (%)): 17%; pest or weed control at 5 ppm (Erysiphe cichoracearum; Golovinomyces cichoracearum, 5 ppm, preventive spray on cucumber, read-out: Observed Efficacy (%)): 27%; pest or weed control at 20 ppm (Erysiphe cichoracearum; Golovinomyces cichoracearum, 20 ppm, preventive spray on cucumber, read-out: Observed Efficacy (%)): 47%; pest or weed control at 1 ppm (Botrytis cinerea; Botrytis cinerea, Conc. 1 ppm, preventive spray on tomato, % control vs untreated, read-out: Observed Efficacy (%)): 57%; pest or weed control at 5 ppm (Botrytis cinerea; Botrytis cinerea, Conc. 5 ppm, preventive spray on tomato, % control vs untreated, read-out: Observed Efficacy (%)): 67%; pest or weed control at 20 ppm (Botrytis cinerea; Botrytis cinerea, Conc. 20 ppm, preventive spray on tomato, % control vs untreated, read-out: Observed Efficacy (%)): 77%; pest or weed control at 0.0001 ppm (Phakopsora pachyrhizi; Phakopsora pachyrhizi, 0.0001 ppm, preventive spray on soybean, read-out: Observed Efficacy (%)): 47%; pest or weed control at 0.001 ppm (Phakopsora pachyrhizi; Phakopsora pachyrhizi, 0.001 ppm, preventive spray on soybean, read-out: Observed Efficacy (%)): 53%; pest or weed control at 0.01 ppm (Phakopsora pachyrhizi; Phakopsora pachyrhizi, 0.01 ppm, preventive spray on soybean, read-out: Observed Efficacy (%)): 65%
2 | O=C(NCCc1ncc(C(F)(F)F)cc1Cl)c1ccccc1C(F)(F)F [Fluopyram] | 21 | 26 | 35 | 26 | 35 | 26 | 35 | 26 | 35 | 38 | 45 | 7 | 7 | 10 | 10 | – | – | – | – | – | pest or weed control at 0.05 ppm (Septoria nodorum; Parastagonospora nodorum, 0.05 ppm, read-out: Observed Efficacy (%)): 8%; pest or weed control at 0.05 ppm (Erysiphe cichoracearum; Golovinomyces cichoracearum, 0.05 ppm, preventive spray on cucumber, read-out: Observed Efficacy (%)): 32%; pest or weed control at 0.1 ppm (Erysiphe cichoracearum; Golovinomyces cichoracearum, 0.1 ppm, preventive spray on cucumber, read-out: Observed Efficacy (%)): 39%; pest or weed control at 0.05 ppm (Botrytis cinerea; [10]): 38%; pest or weed control at 0.1 ppm (Botrytis cinerea; [11]): 45%; pest or weed control at 0.05 ppm (Phakopsora pachyrhizi; [14]): 7%; pest or weed control at 0.1 ppm (Phakopsora pachyrhizi; [15]): 10%
3 | C[C@@H]1CC(C)(C)c2cccc(NC(=O)c3cn(C)nc3C(F)F)c21 [Inpyrfluxam] | – | – | – | – | – | 14 | 23 | – | – | 25 | 38 | 18 | – | 30 | – | 12 | 29 | 14 | 23 | 38 | Observed Efficacy (%) (Erysiphe cichoracearum; 0.05 ppm, cucumber, preventive): 29%; Observed Efficacy (%) (Erysiphe cichoracearum; [22]): 29%; Observed Efficacy (%) (Erysiphe cichoracearum; 0.1 ppm, cucumber, preventive): 38%; Observed Efficacy (%) (Erysiphe cichoracearum; [23]): 38%; Observed Efficacy (%) (Botrytis cinerea; [24]): 25%; Observed Efficacy (%) (Botrytis cinerea; [25]): 38%; Observed Efficacy (%) (Botrytis cinerea; [26]): 35% and 25%; Observed Efficacy (%) (Phakopsora pachyrhizi; [28]): 18%; Observed Efficacy (%) (Phakopsora pachyrhizi; [29]): 30%
4 | propineb | – | – | – | – | – | 20 | 31 | 20 | – | 15 | 22 | 20 | 20 | 33 | 33 | 12 | 24 | 20 | 31 | 22 | Observed Efficacy (Alternaria solani; [30]): 20%; Observed Efficacy (%) (Erysiphe cichoracearum; 0.05 ppm, cucumber, preventive): 14%; Observed Efficacy (%) (Erysiphe cichoracearum; [22]): 14%; Observed Efficacy (%) (Erysiphe cichoracearum; 0.1 ppm, cucumber, preventive): 43%; Observed Efficacy (%) (Erysiphe cichoracearum; [23]): 43%; Observed Efficacy (%) (Botrytis cinerea; [24]): 15%; Observed Efficacy (%) (Botrytis cinerea; [25]): 22%; Observed Efficacy (%) (Botrytis cinerea; [26]): 15%; Observed Efficacy (%) (Phakopsora pachyrhizi; [28]): 20%; Observed Efficacy (%) (Phakopsora pachyrhizi; [29]): 33%
5 | Cn1cc(C(=O)Nc2ccc(F)cc2-c2ccc(Cl)c(Cl)c2)c(C(F)F)n1 [Bixafen, bixafen] | – | – | – | 11 | 29 | 11 | 29 | 11 | 29 | – | – | 15 | – | 22 | – | 18 | 29 | 11 | 29 | 48 | Observed Efficacy (Alternaria solani; [30]): 11%; Observed Efficacy (Alternaria solani; single compound, Conc. 0.1 ppm, preventive spray): 29%; Observed Efficacy (%) (Phakopsora pachyrhizi; [28]): 15%; Observed Efficacy (%) (Phakopsora pachyrhizi; [29]): 22%
6 | CC1COC(Cn2cncn2)(c2ccc(Oc3ccc(Cl)cc3)cc2Cl)O1 (stereo not shown) [Difenconazole, difenoconazole] | 32 | 42 | 47 | – | – | – | 47 | 42 | 47 | 42 | 52 | – | – | 24 | 24 | – | – | – | – | – | pest or weed control at 0.05 ppm (Pyricularia oryzae; [31]): 24%; pest or weed control at 0.1 ppm (Pyricularia oryzae; [31]): 26%; pest or weed control at 0.05 ppm (Alternaria solani; Alternaria solani, single compound, Conc. 0.05 ppm, preventive spray, read-out: Observed Efficacy): 42%; pest or weed control at 0.1 ppm (Alternaria solani; Alternaria solani, single compound, Conc. 0.1 ppm, preventive spray, read-out: Observed Efficacy): 47%; pest or weed control at 0.05 ppm (Botrytis cinerea; [10]): 42%; pest or weed control at 0.1 ppm (Botrytis cinerea; [11]): 52%; pest or weed control at 0.1 ppm (Phakopsora pachyrhizi; [15]): 24%; pest or weed control at 0.05 ppm (Phakopsora pachyrhizi; Phakopsora pachyrhizi, Conc. 0.05 ppm, soybean, preventive, Table D4, read-out: Observed Efficacy (%)): 17%
7 | Cn1cc(C(=O)Nc2ccccc2-c2cc(F)c(F)c(F)c2)c(C(F)F)n1 [Fluxapyroxad, fluxapyroxad] | – | – | – | 40 | 56 | – | – | – | – | – | – | – | 46 | – | 59 | 3 | 5 | 40 | 56 | 38 | Observed Efficacy (Pyricularia oryzae; Conc. 0.05 ppm): 24%; Observed Efficacy (Pyricularia oryzae; Conc. 0.1 ppm): 32%; Observed Efficacy (Alternaria solani; [30]): 40%
8 | O=[N+]([O-])c1cc(C(F)(F)F)c(Cl)c([N+](=O)[O-])c1Nc1ncc(C(F)(F)F)cc1Cl [Fluazinam] | 21 | 7 | 16 | 7 | 16 | 7 | 16 | 7 | 16 | 29 | 38 | 2 | 2 | 10 | 10 | – | – | – | – | – | pest or weed control at 0.05 ppm (Erysiphe cichoracearum; Golovinomyces cichoracearum, 0.05 ppm, cucumber, preventive, read-out: Observed Efficacy (%)): 11%; pest or weed control at 0.1 ppm (Erysiphe cichoracearum; Golovinomyces cichoracearum, 0.1 ppm, cucumber, preventive, read-out: Observed Efficacy (%)): 18%; Observed Efficacy (%) (Erysiphe cichoracearum; [22]): 11%; Observed Efficacy (%) (Erysiphe cichoracearum; [23]): 18%; pest or weed control at 0.05 ppm (Botrytis cinerea; [10]): 29%; pest or weed control at 0.1 ppm (Botrytis cinerea; [11]): 38%; pest or weed control at 0.05 ppm (Phakopsora pachyrhizi; [14]): 2%; pest or weed control at 0.1 ppm (Phakopsora pachyrhizi; [15]): 10%
